Assay results from patent US10759754B2, “Aminobenzoic acid derivatives for use as anti-inflammatory agents, anti-metastatic agents and/or anticancer agents” (3R VALO, S.E.C., priority 2016, dated 2020).
Entries after “also recorded” stand apart in the source; their conditions may differ.

Experiments:
[1] = tested on: C57Bl/6J mice; assay: Acute toxicity study with episodic i.p. injections in C57Bl/6J mice; format: in vivo
[2] = tested on: UBC cell line MB49-I; assay: IFNγ/TNFα-induced NO production (Griess) in MB49-I cells; format: cell-based, murine; conditions: 10 and 50 μM
Procedure: (§1) Evaluation of NO and Urea production by chemical methods. The MB49-I cells and the J774A.1 cells (25×10^3 cells/well) were grown and pretreated, as indicated, with various anti-inflammatory derivatives, precursors and mono-functional derivatives for a period of 3 h. Afterwards the cells were washed twice with 10% FBS RPMI-1640 and then activated to produce NO for a period of 24 h with cytokines INFγ and TNFα. NO production was measured using the Griess reagent method as previously described.^27 This method involves the detection of nitrite ions (NO2^−) formed by the spontaneous oxidation of NO under physiological conditions. According the manufacture procedure (Life Technologies; # G-7921), equal volumes of sulfanilic acid and N-(1-naphthyl)ethylenediamine are mixed together to form the Griess reagent. In the presence of NO2^−, sulfanilic acid is converted to a diazonium salt, which in turn is coupled to N-(1-naphthyl)ethylenediamine to produce a pink coloration that is measured with a spectrophotometer (Biotek, synergy HT) at 548 nm. In the same manner, urea synthesis through arginase-1 activity was measured using commercially available kit.

[3] = tested on: IκB / NFκB signaling pathway; assay: Western blot of phosphorylated IκB in LPS-activated RAW 264.7 cells; format: cell-based, murine; conditions: 90 min pretreatment at 20 and 37.5 μM, 100 ng/mL LPS 15 min
[4] = tested on: MB49-I cells; assay: LPS/IFNγ-induced NO production in MB49-I cells; format: cell-based, murine; conditions: compound 4 at 30 μM, compound 12 at 10, 20, 37.5 and 50 μM
Procedure: as §1, with “Afterwards the cells were washed twice with 10% FBS RPMI-1640 and then activated to produce NO for a period of 24 h with cytokines INFγ and TNFα.” left out

[5] = tested on: STAT1; assay: Western blot of phosphorylated STAT1 in IFNγ-activated human macrophages; format: cell-based; conditions: human macrophages pretreated 30 min at 10 and 50 μM; 30 min activation with 50 U/mL IFNγ
Procedure: (§2) Cell signaling studies: THP1-derived human macrophages (750×10^3 cells/mL) and MB49-I cells (500×10^3 cells/mL) were pretreated for 30 min with vehicle (DMSO), compounds 4 and 5, at 10, 25 or 50 μM; and then washed and recovered immediately (t=0 min) or after 30 min of activation with 50 U/mL IFNγ, 25 ng/mL IL6, or 10 ng/mL TNFα. Cell lysates were prepared and analyzed by immunoblotting as described.^21-23,25 Briefly, protein samples were resolved by SDS-PAGE under reducing conditions and transferred onto a PVDF membrane. Blots were first probed with rabbit polyclonal antibodies against phospho-STAT1 (pSTAT1), pSTAT3, or p-IκB (all at 1:2000) overnight at 4° C. Blots were then incubated with HRP-conjugated goat anti-rabbit IgG Ab (1:3000) for 1 h at room temperature. The same blots were stripped and then probed with anti-STAT1 or anti-STAT3 Abs (both at 1:1000). In both cases, probed molecules were visualized using an enhancement chemiluminescence detection kit (Thermo Fisher Scientific).

[6] = tested on: TNFα/NFκB signaling pathway; assay: Western blot of TNFα/NFκB signaling in MB49-I cells; format: cell-based, murine; conditions: doses as lower as 10 μM
Procedure: as §2

[7] = tested on: MB49-I cells; assay: Relative cell viability of MB49-I cells 24-hour post treatment; format: cell-based, murine; conditions: 3 h treatment, 0-50 μM
Procedure: Evaluation of cell proliferation by the MTT assay. […] Cells were pretreated for a period of 3 h with vehicle (DMSO) or derivatives 1 and 1A at 0, 10, 25, 37.5, and 50 μM, and then incubated for 24 h in the absence or the presence of INFγ and TNFα. At the end of the culture period, 10 μL of 5 mg/mL methylthiazolyldiphenyl-tetrazolium bromide (MTT) solution was added to each well. After a 3-h incubation period with MTT reagent, 100 μL of MTT solubilization buffer (10% SDS in 10 mM HCl) was added and plates were placed overnight in the cell incubator before absorbance measure. The optical density was read at 580 nm using the Microplate Reader Manager (from Bio-Rad Laboratories).

[8] = tested on: MDA-MB-241 cells; assay: 3D spheroid-based tumor invasion assay; format: cell-based, human; conditions: 30 μM, day 4 vs day 0
Procedure: Cellular analysis of 3D spheroid-based tumor invasion assays. Cell preparation and spheroid formation were performed following the manufacturer instructions (Corning). Briefly, MDA-MB-231 cells were harvested and diluted to a concentration of 5×10^4 cells/mL in (complete) culture media supplemented with 10% serum. 100 μL of cell suspension was then pipetted to appropriate 96 well spheroid formation plate and placed at 37° C./5% CO2. Spheroid formation was monitored every 24 hours. The typical cell aggregation period was 48 hours. Upon spheroid formation completion, 70 μL of complete medium was removed from each well, and replaced by 70 μL of serum-free medium. This was repeated on a daily basis to create a serum starvation period of 48 hours. Matrigel matrix (100 μL) was then added to each well. The plate was centrifuged at 300×g for 5 minutes in a swinging bucket centrifuge. The plate was then transferred to a 37° C./5% CO2 incubator for one hour to initiate gel formation. Following the 1-hour gel formation incubation period, DMSO or compound 4 was added to appropriate wells during 60 minutes. After pretreatment, the media was removed and replaced by complete culture media, and then the media was changed every day for a period of 4 days. […] These protrusions were identified, and their area and perimeter properly quantified using the ImageJ software (National Institutes of Health).

[9] = i.p. 0, 90, 150, 300 μM during 3 weeks

CC(C)(C)OC(=O)NNC(=O)c1ccc(N2C(=O)C=CC2=O)cc1 [Compound 4, N′-[4-(2,5-dioxo-2,5-dihydro-pyrrol-1-yl)-benzoyl]-hydrazine carboxylic acid tert-butyl ester]
tolerability in mice ([1]; concentrations up to 300 μM): well tolerated
hematocrit [1, 9]: no obvious effect
normal development and viability [1, 9]: no obvious effect
organs weight [1, 9]: no obvious effect
liver histological analysis (hepatocellular injury, inflammation, fibrosis, steatosis) ([1]; i.p. up to 300 μM during 3 weeks): no evidence of toxicity; also recorded: does not induce features of liver dysfunction
combined IFNγ/TNFα-induced NO synthesis [2]: efficiently inhibited
LPS-activated NFκB signaling pathway (ratio p-IkB/IkB) [3]: efficient to inhibit
LPS/IFNγ-induced NO synthesis [4]: inhibitory effect
IFNγ-induced STAT1 activation (ratio of phosphorylated/no phosphorylated proteins) [5]: decreased; also recorded: efficiently inhibited
TNFα/NFκB signaling pathway (Western blot) [6]: inhibit; also recorded: efficiently inhibited
relative cell viability / cell survival [7]: stopping cell proliferation
invasiveness activity in 3D spheroid-based tumor invasion assay [8]: anti-invasion properties; also recorded: efficiently inhibited
